{"source": "patent US8470334B2", "about": "“Method of inducing an antiviral immune response against HIV-1 utilizing chimeric HIV Env proteins comprising CD4 mini-proteins or CD4 mimetics” (Novartis Vaccines & Diagnostics, Inc, priority 2002, dated 2013)", "molecular_target": "gp120 (Human immunodeficiency virus type 1 group M subtype B, UniProt P04578)", "assay": "competitive ELISA of gp120 binding", "parameters": "species or system HIV-1", "settings": "as compared to previous double mutant (CD4M8)", "source_text": "In a second step, each putatively active side chain of the miniprotein was replaced by an Ala residue (“Ala scanning”).", "data": [{"smiles": "CC(C)C[C@@H]1NC(=O)CNC(=O)[C@H](CC(C)C)NC(=O)[C@H](CO)NC(=O)[C@H](CCCCN)NC(=O)[C@@H]2CSSC[C@@H](C(=O)NCC(=O)N3CCC[C@H]3C(=O)O)NC(=O)[C@H](C)NC(=O)[C@@H]3CSSC[C@H](NC(=O)[C@H](CCCNC(=N)N)NC(=O)[C@H](C)NC(=O)[C@H](CC(C)C)NC(=O)[C@H](CC(N)=O)NC(=O)[C@@H](N)CSSC[C@H](NC(=O)[C@H](CCCCN)NC(=O)CNC(=O)[C@H](CC(C)C)NC1=O)C(=O)N[C@@H](C)C(=O)NCC(=O)N[C@@H](CO)C(=O)N[C@@H](Cc1ccccc1)C(=O)N3)C(=O)N[C@@H](CCC(N)=O)C(=O)N[C@@H](CC(C)C)C(=O)N[C@@H](CCCNC(=N)N)C(=O)N2", "note": "[CD4M9]", "values": [{"measurement": "further increase of binding affinity", "result": "ten-fold"}]}]}
